Data taken from patent US4442214A, “Thermo-stable micro-organism” (Development Finance Corporation of New Zealand, priority 1979, dated 1984).
Where two headings read alike, the source gives them in different places.

Legend:
[1] = system: NADH and succinate oxidases; assay: Oxidase system activities (oxygen uptake) with inhibitors; assay type: biochemical; details: THERMUS T-351 oxidase systems
Description: Oxygen uptake was measured polarographically using a Rank electrode (Rank Brothers, Bottisham, Cambridge, England). The reaction mixture consisted of 0.1 M KH2 PO4 /Na2 HPO4 buffer pH 7.0, a suitable amount of membrane particle protein, 50 μmol of substrate (except in the case of NADH were 5 μmol were used), in a final volume of 2.5 ml.
Buffers were equilibrated at the desired temperature with sparged air for 30 minutes.
Particles were equilibrated in the electrode for 2 minutes prior to measurement of oxygen uptake. Rates were measured over the first minute.

[2] = system: CALDOLYSIN; assay: Response of CALDOLYSIN to inhibitors; assay type: biochemical, THERMUS T-351
[3] = 80° C.; published data; cited from earlier work

Molecule	relative effect on NADH oxidase and succinate oxidase [1]	other results
CCCCCCCc1cc(O)c2ccccc2[n+]1[O-] [2-heptyl-4-hydroxyquinoline-N-oxide]	more effective inhibitors of succinate oxidase	
c1ccc(-c2ccnc3c2ccc2c(-c4ccccc4)ccnc23)cc1 [Bathophenanthroline]	more effective inhibitors of succinate oxidase	
O=C(O)CN(CCOCCOCCN(CC(=O)O)CC(=O)O)CC(=O)O [EGTA]		% Inhibitor of Activity ([2]; inhibitor 1 mM): 18%; % Inhibitor of Activity ([2]; inhibitor 10 mM): 45%
O=C(O)CI [Iodoacetic acid]		% Inhibitor of Activity [2]: 60%
O=S(=O)(F)Cc1ccccc1 [Phenylmethyl Sulfonyl Fluoride]		% Inhibitor of Activity ([2]; inhibitor 10 mM): 10%
C=C(C)[C@H]1Cc2c(ccc3c2O[C@@H]2COc4cc(OC)c(OC)cc4[C@@H]2C3=O)O1 [Rotenone]	more effect on the NADH oxidase	
CCC1(CCC(C)C)C(=O)NC(=O)NC1=O [amytal]	affected NADH and succinate oxidases equally	
antimycin A	more effective inhibitors of succinate oxidase	
THERMOLYSIN: thermophilic protease from BACILLUS THERMOPROTEOLYTICUS, published data (protein, UniProt P00800 233-548, looked up) Thermolysin: ITGTSTVGVGRGVLGDQKNINTTYSTYYYLQDNTRGNGIFTYDAKYRTTLPGSLWADADNQFFASYDAPAVDAHYYAGVTYDYYKNVHNRLSYDGNNAAIRSSVHYSQGYNNAFWNGSQMVYGDGDGQTFIPLSGGIDVVAHELTHAVTDYTAGLIYQNESGAINEAISDIFGTLVEFYANKNPDWEIGEDVYTPGISGDSLRSMSDPAKYGDPDHYSKRYTGTQDNGGVHINSGIINKAAYLISQGGTHYGVSVVGIGRDKLGKIFYRALTQYLTPTSNFSQLRAAAVQSATDLYGSTSQEVASVKQAFDAVGVK		HALF-LIFE [3]: 1 h
